The text below walks through data of patent US20220249528A1 (CELGENE CORPORATION, priority 2019, published 2022).

The test system of one test is MV4-11 cells. As to the kind of experiment: RNASeq analysis, differential expression and KEGG pathways. The test is classed as cell-based. The source says: After treatment, cells were recovered, washed once in PBS, and flash frozen as cell pellets. Cell pellets were sent to Canopy Biosciences for RNA extraction and library preparation and sequencing. RNA was extracted using the Qiagen RNeasy Mini Kit according to manufacturer's instructions. A modified protocol was used to preserve miRNA species. […] MCL1 RNA levels in other cell lines were quantified by RNASeq using standard methods.
Libraries were multiplexed and sequenced using Illumina HiSeq. All gene counts were then imported into the R/Bioconductor package EdgeR and TMM normalization size factors were calculated to adjust for samples for differences in library size. Ribosomal genes and genes not expressed in the smallest group size minus one samples greater than one count-per-million were excluded from further analysis. Differential expression analysis was then performed to analyze for differences between conditions and the results were filtered for only those genes with Benjamini-Hochberg false-discovery rate adjusted p-values less than or equal to 0.05. Global perturbations in known Gene Ontology (GO) terms and KEGG pathways were detected using the R/Bioconductor package GAGE to test for changes in expression of the reported log 2 fold-changes reported by Limma in each term versus the background log 2 fold-changes of all genes found outside the respective term. The R/Bioconductor package heatmap and Pathview was used to display heatmaps or annotated KEGG graphs across groups of samples for each GO term or KEGG pathway (respectively) with a Benjamini-Hochberg false-discovery rate adjusted p-value less than or equal to 0.05. To find differentially expressed genes, the raw counts were variance stabilized with the R/Bioconductor package DESeq2.

Another test has as its system MCL-1 in THP-1 cells. Description: Western blot of MCL-1 degradation. The test is classed as cell-based. The following applies: THP-1, by 24 hours. The protocol:
(§1) Lysates were quantified using a bicinchoninic acid (BCA) kit (Piece/Thermo Fisher, Waltham, Mass.). 20 to 30 μg protein was resolved on a 4-12% SDS-PAGE gel, transferred to PVDF membranes (80V/90 minute by wet-transfer), and blocked with Oddysey TBS blocking buffer for 1 hour and then probed with appropriate primary antibodies overnight at 4° C. using dilution as recommended by manufacturer. Membranes were washed three times for a total of 30 minutes and then incubated with secondary antibodies at room temperature in the dark for 1 hour. After another three washes, Odyssey infrared imaging system and companion software (LI-COR biosciences, Lincoln, Nebr., USA) were used to scan immunoblot membranes and to quantify band intensity according to the manufacturer's instructions. The ratio of proteins of interest to loading control in treated samples was normalized to the corresponding ratio in untreated cells.
Background: A western blot detects proteins with antibodies after separation by electrophoresis.

The test system of another test is MCL-1 in OCI-AML2 cells. As to the kind of experiment: Western blot of MCL-1 degradation. The test is classed as cell-based. The following applies: OCI-AML2, FIG. 12D. The protocol:
as §1

A further test deals with MCL-1 in KG1a cells. As to the kind of experiment: Western blot of MCL-1 degradation. The format is cell-based. The following applies: FIG. 12A. The protocol: as §1
Another test concerns 22 AML cell lines. As to the kind of experiment: Cell viability and 5-azacytidine-venetoclax synergy in AML cell line panel. The test is classed as cell-based. The settings on record: venetoclax-resistant lines Kasumi-1, Kasumi-2 and NOMO-1.
The subject of test [1] is ATF3 and SCD mRNA in MV4-11 cells. Description: Real-time PCR validation of ATF3 and SCD expression. The following applies: for ATF3 expression: FIG. 14C; for SCD expression: 24 hours, FIG. 14D. The test is classed as cell-based. The protocol:
At this time, cells were recovered and RNA was extracted using Qiagen RNeasy kit according to manufacturer's instructions. Reverse transcription was performed using SuperScript VILO cDNA synthesis kit. Validated Taqman probes and Taqman Fast Advanced Master Mix was used with Viia 7 Real-Time PCR System (Invitrogen/ThermoFisher Scientific, Waltham, Mass.) to quantify transcripts of ATF3, SCD, and 18S mRNA.
A general note: Quantitative PCR measures a nucleic acid by following its amplification.

Another test deals with MV4-11 xenograft model. Description: Disseminated AML xenograft survival study. The format is in vivo, mice. The following applies: 5-azacytidine LEED regimen 1 mg/kg qd×5×3, alone or with venetoclax or midostaurin 100 mg/kg qd×21; vehicle 29.5. The protocol: LEED models oral administration of AZA, while HELD models intravenous or subcutaneous administration of AZA.
The animals were fed ad libitum water (reverse osmosis, 1 ppm Cl), and NIH 31 Modified and Irradiated Lab Diet® consisting of 18.0% crude protein, 5.0% crude fat, and 5.0% crude fiber. […] (68-72° F.) and 40-60% humidity.
On each day of dosing, an appropriate amount of gilteritinib was dissolved in 0.5% methylcellulose in DI water to yield a dosing solution at 0.4 mg/mL. Each week, an appropriate amount of venetoclax was dissolved in 10% ethanol:30% PEG400:60% phosal 50 propylene glycol to yield a dosing solution at 10 mg/mL. […]
Animals were monitored individually for an endpoint of moribundity due to progression of the leukemia. […] The time to endpoint (TTE), in days, was recorded for each mouse that died of its disease or was euthanized due to extensive tumor progression. […] The median TTE value was calculated for each group. The median TTE of treated mice was expressed as a percentage of the median TTE of the control mice (% T/C), and the increase in life span (ILS) was calculated as: ILS=% T/C−100%, where T=median TTE treated, and C=median TTE control. […]
Animals were weighed daily on Days 1-5, then twice per week until the completion of the study. […] Group mean body weight loss also was monitored as per protocol. […] Survival was analyzed by the Kaplan-Meier method, based on TTE values.

For the next test, the system named is MCL-1 in MV4-11 cells. As to the kind of experiment: Western blot of MCL-1 degradation. The test is classed as cell-based. The settings on record: 20 μM Z-VAD-FMK 1 hour before 5-azacytidine for 16 hours, FIG. 13B. The protocol:
as §1, with “cells. Antibodies used for immunoblotting were purchased from the following sources: BCL-2 (sc-7382), MCL1-(sc-819) from Santa Cruz Biotechnology (Dallas, Tex., USA, Bim (2819), caspase-3 (9664) from Cell Signaling Technology; beta-Actin (A2228) from Sigma-Aldrich; DNMTI (ab188453) from AbCam; IRDye 680 goat anti-rabbit and IRDye 800 goat anti-mouse secondary antibodies (#925-68073 and #925-32212) were purchased from Li-COR Biosciences (Lincoln, Nebr.). […]” for “cells.”

Where [2] appears, read: 1 μM 5-azacytidine vs PBS, 24 h.

Peptide text beside a SMILES is read from it. * marks the point of attachment. Cbz = O=C(OCc1ccccc1)*; CH2F = FC*

Take `Nc1ncn([C@@H]2O[C@H](CO)[C@@H](O)[C@H]2O)c(=O)n1` [5-azacytidine, 4-amino−1-B-D-ribofuranosyl-1,3,5-triazin-2(1H)-one]: in the test on MV4-11 cells (setting [2]), the “Mean logFC, KEGG pathway Metabolic pathways” value is given as −5.29. For the same compound, in the test with MV4-11 cells (setting [2]), the “Mean logFC, KEGG pathway Taste transduction” value came out at 2.44. In addition, the ATF3 expression increase result in the test with MV4-11 cells (RNAseq, 48 hours after 5-azacytidine treatment) is recorded as “two-fold”. The “extent of MCL-1 degradation” value in the test on MCL-1 in THP-1 cells is recorded as “incomplete degradation by 24 hours”. Besides, the MCL-1 degradation result with MCL-1 in OCI-AML2 cells is “did not lead to any degradation of MCL-1”. Further, the “start of MCL-1 degradation after treatment” value with MCL-1 in KG1a cells stood at 6 h. For the same compound, the “effect of co-treatment on venetoclax resistance” value in the test with 22 AML cell lines is given as “reversal of venetoclax resistance”. For the same compound, the ATF3 expression entry was “not sufficient to induce ATF3 expression” in test [1] (0.3 μM, 24 or 48 hours); “increased in a time- and concentration-dependent manner” in test [1] (0.3, 1 or 3 μM, 24 and 48 hours). The SCD expression result in test [1] (3 μM) is “decreased rapidly within 24 hours”; in test [1] (low concentrations) it was “not affected”. Further, the median survival with MV4-11 xenograft model is on record as 35.

Consider `COC(=O)C[C@H](NC(=O)[C@H](C)NC(=O)[C@@H](NC(=O)OCc1ccccc1)C(C)C)C(=O)CF` [Z-VAD-FMK] (Cbz-Val-Ala-Asp(OMe)-CH2F), for which the “effect on MCL-1 degradation by 5-azacytidine” value in the test on MCL-1 in MV4-11 cells was “partially ablated”.
